# Test results reported in paper PMC11798738, “Targeting ASK1 by CS17919 alleviates kidney‐ and liver‐related diseases in murine models” (Animal Models and Experimental Medicine, 2024).
# pIC50: −log10 of the molar value.
# What was measured:
# CYP 1A2 = CYP 1A2 (Homo sapiens, UniProt P05177)
# CYP 2C8 = CYP 2C8 (Homo sapiens, UniProt P10632); assay: CYP inhibition in vitro; type: in vitro ADME
# CYP 2C9 = CYP 2C9 (Homo sapiens, UniProt P11712); assay: CYP inhibition in vitro; type: in vitro ADME
# [1] = Metabolic stability in liver microsomes; type: in vitro ADME; conditions: Rat
# CYP 2C19 = CYP 2C19 (Homo sapiens, UniProt P33261); assay: CYP inhibition in vitro; type: in vitro ADME
# MRC‐5 = assay: MTS cytotoxicity assay, MRC-5; type: cell-based, human; conditions: 72 h
# Experimental: (§1) Human embryonic kidney cells (HEK‐293A), human hepatocellular carcinoma cells (HUH7), human embryonic liver diploid cells (CCC‐HEL‐1) and human embryonic lung cells (MRC‐5) were selected for the cytotoxicity study of both drugs, using the MTS assay protocol. Cells were cultured at 37°C with 5% CO2 using an appropriate medium. […] After 72 h of incubation, 30 μL of MTS solution was added to each well, and the cells were then incubated for 2–4 h in the dark. The absorbance value of each well at 490 nm was measured using an enzymatic plate reader and the IC50 for each drug and each cell line was calculated. Cell viability and cytoxicity experiments were repeated three times.
# CYP3A4 = CYP3A4 (Homo sapiens, UniProt P08684); assay: CYP inhibition in vitro; conditions: read-out: CYP3A4 (Midazolam) inhibition IC50; substrate Midazolam
# [2] = Metabolic stability in liver microsomes; type: in vitro ADME; conditions: Human
# CYP 2D6 = CYP 2D6 (Homo sapiens, UniProt P10635); assay: CYP inhibition in vitro; type: in vitro ADME
# NASH mouse model = assay: CCL4- and HFD-induced NASH mouse model; type: in vivo, C57BL/6J mice; conditions: data not shown; model group 5/9
# HUH7 = assay: MTS cytotoxicity assay, HUH7; type: cell-based, human; conditions: 72 h
# Experimental: as §1
# DKD mouse model = assay: STZ + HFD-induced DKD mouse model; type: in vivo, mice; conditions: 50 mg/kg gavage twice a day, ten weeks
# Experimental: 26 male neonatal mice were purchased from Chengdu Pharmachem Biotechnology Co., 5 of which were assigned to the control group and fed a chow diet. The other 21 mice were subcutaneously injected with STZ ([…]) 48 h after birth. After 4 weeks, these mice were fed a high‐fat diet (HFD, Research Diet, New Brunswick, NJ, USA) and randomly subdivided into two groups based on blood glucose level followed by 6 h of fasting: Model (n = 11) and CS17919 (n = 10). Both the control and model groups were given the solvent mentioned above, administered orally twice a day, while CS17919 was administered twice a day by gavage at a dose of 50 mg/kg for 70 days. Body weight measurements were performed twice a week during the administration period. 24‐h urine was collected for each mouse 2 days before sacrifice. Creatinine clearance was calculated using the following formula: creatinine clearance = urinary creatinine (mg/dL) × urine volume per minute (ml/min)/blood creatinine (mg/dL). Fasting blood glucose was measured before sacrifice. After a 10‐week drug intervention, mice were sacrificed, and blood was collected to isolate serum for the urea nitrogen and serum creatinine test. The kidneys of each mouse were then removed, weighed and fixed in 10% formalin solution for pathological study.
# PAS staining was applied to determine kidney glomerular sclerosis in the DKD model. Thin 4 μm paraffin sections of each sample were used in this study, which followed the standard procedure. Periodic acid‐treated paraffin sections were stained using Schiff for 10 min, after rinsing the residual acid. Hematoxylin staining was performed for 3 min, and the samples were then dehydrated and sealed. The PAS score was calculated by semiquantitative analysis as follows: 0, without sclerosis; 1, 1%–25% sclerosis area; 2, 26%–50% sclerosis area; 3, 51%–75% sclerosis area; 4, >75% sclerosis area.
# human ASK1 kinase = human ASK1 kinase (Homo sapiens, UniProt Q99683); assay: ASK1 kinase inhibition, HTRF assay; conditions: read-out: IC50, inhibition of ASK1, full-length recombinant human ASK1
# Text: Enzymatic activity analysis was repeated three times. IC50 results were obtained using Prism 8.0 (GraphPad Prism Software).
# L02 cells = assay: Effects of the drugs on L02 cells (Figure S1C); type: cell-based, human; conditions: 0.3–10 μmol/L
# Experimental: FIGURE S1 (A) Chemical structural formulae of CS17919 and GS-4997. (B) Viability of L02 cells 72 h after 25–800 μmol/L (2-fold dilution) PA stimulation. (C) The effects of CS17919 and GS-4997 at different doses (0.3–10 μmol/L) on L02 cells. (D) Kidney weights in the UUO model. (E) Renal coefficients in the DKD model. (F) Urine ALB in the DKD model. (G) Liver weights in the NASH model. *: PA vs. Blank; GS-4997 vs. DMSO; Treatment vs. Model. #: CS17919 vs. DMSO; Control vs. Model. * p < 0.05, ## p < 0.01, *** p < 0.001, #### and **** p < 0.0001 were obtained by one-way ANOVA.
# [3] = Tissue distribution in mice, oral; type: in vivo, C57BL/6J mice; conditions: 20 mg/kg gavage
# Experimental: Male C57BL/6J mice at 6–8 weeks (Beijing Huafukang Biotechnology Co., Ltd) were also selected for tissue distribution studies. Mice were gavage‐administered at 20 mg/kg and anesthetized at 1, 2, 4, and 8 h after administration for tissue collection, including whole blood, heart, liver, kidney, and brain. These organs were homogenized using a tissue homogenizer and analyzed together with the plasma according to the standard LC/MS procedure.
# [4] = Pharmacokinetic study in mice, oral; type: in vivo, C57BL/6J mice; conditions: mouse plasma, mean ± SD, n = 3
# Experimental: Male C57BL/6J mice (Beijing Huafukang Biotechnology Co., Ltd, Beijing, China) were selected at 6–8 weeks for the experiment. […] About 50–60 μL of blood and tissue were isolated in anticoagulation tubes at 15, 30 min, 1, 2, 4, 6, and 8 h after administration, respectively, and then centrifuged at 5000 r/min for 7 min at 4°C. […] The standard solution was prepared with 7 concentrations and QC with 3. The standard and QC working solutions were added to the 96‐well plate, and the protein was precipitated by adding acetonitrile solution containing the internal standard together with the sample to be tested. After shaking for 10 min and centrifugation at 12 000 × g for 10 min, the supernatants from the 96‐well plate were analyzed by LC–MS (mobile phase: 0.1% formic acid‐water 0.1% formic acid‐acetonitrile). Raw data were imported into Phoenix WinNonlin to calculate AUC, C max, T 1/2, etc.
# Sequence of CYP 2D6 (P10635 whole entry): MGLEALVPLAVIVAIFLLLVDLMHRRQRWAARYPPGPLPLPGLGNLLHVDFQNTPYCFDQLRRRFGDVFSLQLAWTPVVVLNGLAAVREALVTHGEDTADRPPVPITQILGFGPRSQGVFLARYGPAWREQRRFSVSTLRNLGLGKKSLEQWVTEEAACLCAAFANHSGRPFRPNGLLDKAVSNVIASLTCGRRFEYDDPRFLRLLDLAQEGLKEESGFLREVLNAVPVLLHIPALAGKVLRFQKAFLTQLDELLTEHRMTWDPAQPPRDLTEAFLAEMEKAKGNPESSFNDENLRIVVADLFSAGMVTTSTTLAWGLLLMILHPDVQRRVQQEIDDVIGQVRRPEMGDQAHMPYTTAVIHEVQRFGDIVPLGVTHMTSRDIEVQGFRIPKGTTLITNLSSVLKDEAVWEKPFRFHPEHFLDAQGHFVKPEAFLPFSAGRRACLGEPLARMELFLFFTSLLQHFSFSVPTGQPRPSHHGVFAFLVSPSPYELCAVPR
# Sequence of CYP 2C9 (P11712 whole entry): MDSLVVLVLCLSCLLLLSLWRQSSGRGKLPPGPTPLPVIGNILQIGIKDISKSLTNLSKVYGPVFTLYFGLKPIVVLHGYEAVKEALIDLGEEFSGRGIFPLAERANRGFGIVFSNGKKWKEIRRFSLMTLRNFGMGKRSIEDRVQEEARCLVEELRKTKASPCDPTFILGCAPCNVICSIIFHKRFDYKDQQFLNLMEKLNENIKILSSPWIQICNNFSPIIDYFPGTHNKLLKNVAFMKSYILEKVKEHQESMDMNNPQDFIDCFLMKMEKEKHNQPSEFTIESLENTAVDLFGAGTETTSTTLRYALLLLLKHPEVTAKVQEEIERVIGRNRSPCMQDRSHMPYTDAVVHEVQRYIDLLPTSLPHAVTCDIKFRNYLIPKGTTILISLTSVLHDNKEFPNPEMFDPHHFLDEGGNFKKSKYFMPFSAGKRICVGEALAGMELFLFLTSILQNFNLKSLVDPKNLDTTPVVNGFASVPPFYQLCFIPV
# Sequence of CYP 2C8 (P10632 whole entry): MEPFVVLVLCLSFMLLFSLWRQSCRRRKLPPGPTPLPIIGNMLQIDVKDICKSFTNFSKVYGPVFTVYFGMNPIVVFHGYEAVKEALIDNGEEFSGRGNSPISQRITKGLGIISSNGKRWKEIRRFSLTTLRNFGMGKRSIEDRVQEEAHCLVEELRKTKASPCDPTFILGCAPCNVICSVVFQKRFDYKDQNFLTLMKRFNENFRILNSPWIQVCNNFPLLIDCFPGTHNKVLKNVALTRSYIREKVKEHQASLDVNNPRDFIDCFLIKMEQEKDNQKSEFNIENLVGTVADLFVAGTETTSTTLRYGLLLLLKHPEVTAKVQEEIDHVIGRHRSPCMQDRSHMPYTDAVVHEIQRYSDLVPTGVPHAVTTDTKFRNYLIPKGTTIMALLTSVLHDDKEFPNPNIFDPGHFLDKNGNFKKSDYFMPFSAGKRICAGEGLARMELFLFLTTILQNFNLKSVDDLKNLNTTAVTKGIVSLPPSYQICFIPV
# Sequence of human ASK1 kinase (Q99683 whole entry): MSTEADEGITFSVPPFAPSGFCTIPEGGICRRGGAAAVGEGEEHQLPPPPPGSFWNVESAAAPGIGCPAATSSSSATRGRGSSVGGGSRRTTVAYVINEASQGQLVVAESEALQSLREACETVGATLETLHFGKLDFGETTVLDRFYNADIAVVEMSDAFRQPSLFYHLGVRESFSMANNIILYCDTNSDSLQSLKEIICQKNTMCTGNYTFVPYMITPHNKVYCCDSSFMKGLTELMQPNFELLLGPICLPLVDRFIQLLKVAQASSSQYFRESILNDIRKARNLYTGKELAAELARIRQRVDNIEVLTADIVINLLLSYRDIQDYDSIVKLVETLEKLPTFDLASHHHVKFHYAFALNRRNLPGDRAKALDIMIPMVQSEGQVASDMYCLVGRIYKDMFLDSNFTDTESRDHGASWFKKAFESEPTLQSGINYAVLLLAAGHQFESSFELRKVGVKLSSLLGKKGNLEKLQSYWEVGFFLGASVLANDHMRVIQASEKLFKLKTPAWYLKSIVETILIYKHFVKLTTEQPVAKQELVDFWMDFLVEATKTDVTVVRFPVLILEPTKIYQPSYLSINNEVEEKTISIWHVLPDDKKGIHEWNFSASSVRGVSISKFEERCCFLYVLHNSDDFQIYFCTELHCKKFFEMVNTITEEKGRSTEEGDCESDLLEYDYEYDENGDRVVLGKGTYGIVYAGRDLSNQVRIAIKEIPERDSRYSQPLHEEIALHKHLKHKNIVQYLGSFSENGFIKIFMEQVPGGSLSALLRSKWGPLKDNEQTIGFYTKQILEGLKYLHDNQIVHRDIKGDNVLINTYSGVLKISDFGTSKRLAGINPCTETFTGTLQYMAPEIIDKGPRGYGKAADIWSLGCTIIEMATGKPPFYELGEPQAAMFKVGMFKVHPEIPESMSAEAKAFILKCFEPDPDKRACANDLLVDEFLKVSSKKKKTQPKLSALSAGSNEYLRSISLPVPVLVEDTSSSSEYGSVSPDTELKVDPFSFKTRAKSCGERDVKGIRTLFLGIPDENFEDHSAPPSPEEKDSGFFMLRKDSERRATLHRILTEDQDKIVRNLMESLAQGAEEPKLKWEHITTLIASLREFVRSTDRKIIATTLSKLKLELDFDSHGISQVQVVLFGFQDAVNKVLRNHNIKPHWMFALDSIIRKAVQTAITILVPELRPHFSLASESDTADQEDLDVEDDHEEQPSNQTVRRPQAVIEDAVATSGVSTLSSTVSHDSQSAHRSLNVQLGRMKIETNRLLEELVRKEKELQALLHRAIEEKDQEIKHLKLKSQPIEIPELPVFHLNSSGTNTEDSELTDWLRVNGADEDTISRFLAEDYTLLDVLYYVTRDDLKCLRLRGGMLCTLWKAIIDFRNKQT
# Sequence of CYP3A4 (P08684 whole entry): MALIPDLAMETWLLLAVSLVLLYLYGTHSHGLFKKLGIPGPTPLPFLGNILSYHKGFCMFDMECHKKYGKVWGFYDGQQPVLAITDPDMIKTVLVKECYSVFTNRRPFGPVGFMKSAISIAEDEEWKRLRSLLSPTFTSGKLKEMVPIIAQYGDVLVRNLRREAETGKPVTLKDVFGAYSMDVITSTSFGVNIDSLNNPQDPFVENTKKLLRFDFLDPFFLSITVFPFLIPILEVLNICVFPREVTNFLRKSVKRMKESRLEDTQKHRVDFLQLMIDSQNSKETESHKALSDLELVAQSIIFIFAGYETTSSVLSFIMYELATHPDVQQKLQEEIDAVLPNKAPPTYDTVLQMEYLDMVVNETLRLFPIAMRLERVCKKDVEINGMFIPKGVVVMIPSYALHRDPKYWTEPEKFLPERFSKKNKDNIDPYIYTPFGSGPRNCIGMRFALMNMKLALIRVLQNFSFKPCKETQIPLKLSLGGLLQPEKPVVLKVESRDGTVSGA
# Sequence of CYP 2C19 (P33261 whole entry): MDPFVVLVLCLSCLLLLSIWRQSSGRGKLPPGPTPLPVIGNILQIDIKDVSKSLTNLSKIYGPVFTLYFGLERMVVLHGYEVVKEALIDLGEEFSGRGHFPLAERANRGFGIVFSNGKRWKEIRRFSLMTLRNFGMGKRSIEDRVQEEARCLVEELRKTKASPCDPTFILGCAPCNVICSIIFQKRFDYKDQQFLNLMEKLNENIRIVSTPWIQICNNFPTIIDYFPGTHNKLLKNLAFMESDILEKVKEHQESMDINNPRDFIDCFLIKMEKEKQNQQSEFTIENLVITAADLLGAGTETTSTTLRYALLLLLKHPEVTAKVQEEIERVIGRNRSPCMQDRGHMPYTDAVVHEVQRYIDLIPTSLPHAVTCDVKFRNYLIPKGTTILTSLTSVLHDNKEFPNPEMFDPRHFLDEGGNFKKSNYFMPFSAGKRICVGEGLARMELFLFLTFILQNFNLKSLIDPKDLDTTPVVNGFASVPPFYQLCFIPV
# Sequence of CYP 1A2 (P05177 whole entry): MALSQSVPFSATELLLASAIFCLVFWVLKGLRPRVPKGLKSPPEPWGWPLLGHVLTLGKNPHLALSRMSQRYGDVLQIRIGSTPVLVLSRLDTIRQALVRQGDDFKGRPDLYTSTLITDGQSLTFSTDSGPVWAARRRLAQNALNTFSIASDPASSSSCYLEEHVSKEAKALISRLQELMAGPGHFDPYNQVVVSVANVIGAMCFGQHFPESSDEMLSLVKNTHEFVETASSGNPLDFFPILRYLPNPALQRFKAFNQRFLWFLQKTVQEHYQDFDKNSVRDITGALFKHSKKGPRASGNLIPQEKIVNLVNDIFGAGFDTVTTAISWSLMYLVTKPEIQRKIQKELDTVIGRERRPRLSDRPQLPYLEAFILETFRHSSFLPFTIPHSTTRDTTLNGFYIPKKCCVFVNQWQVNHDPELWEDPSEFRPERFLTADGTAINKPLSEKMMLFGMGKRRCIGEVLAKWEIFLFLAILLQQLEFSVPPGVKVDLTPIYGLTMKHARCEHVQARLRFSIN
smiles,measurement,setting,value
Cc1cc(F)c(C(=O)Nc2cccc(-c3nncn3[C@H](C)C(F)(F)F)n2)cc1NC(=O)C1CC1 [CS17919],pIC50,CYP 1A2,< 5.00
same,pIC50,CYP 2C8,< 5.00
same,pIC50,CYP 2C9,< 5.00
same,T1/2 in liver microsomes,[1],>145 min
same,pIC50,CYP 2C19,< 5.00
same,Cytotoxicity (cell viability),MRC‐5,barely affected cell viability
same,pIC50,CYP3A4,5.52
same,T1/2 in liver microsomes,[2],>145 min
same,pIC50,CYP 2D6,< 5.00
same,Occurrence of hepatocellular carcinoma (mice affected/group),NASH mouse model,3/8
same,Cytotoxicity (cell viability),HUH7,barely affected cell viability
same,Blood glucose,DKD mouse model,mildly reduced
same,Body weight,DKD mouse model,slight weight loss
same,Creatinine clearance,DKD mouse model,non‐significant tendency to improve
same,Glomerular sclerosis score (PAS staining) vs model group,DKD mouse model,significantly reduced
same,Insulin sensitivity (serum insulin) vs model group,DKD mouse model,slightly increased
same,Renal coefficients,DKD mouse model,improved
same,Serum creatinine,DKD mouse model,significantly lowered
same,Serum urea nitrogen,DKD mouse model,non‐significant tendency to reduce
same,pIC50,human ASK1 kinase,7.65
same,Safety in L02 cells,L02 cells,safer than GS‐4997
same,Tissue accumulation,[3],tissue‐specific accumulation of CS17919 in the liver and kidney
same,Brain concentration,"[3]; 1 h, mean ± SD, n = 3",30.42 ± 6.82 ng/g
same,Heart concentration,"[3]; 1 h, mean ± SD, n = 3",1330.94 ± 384.66 ng/g
same,Kidney concentration,"[3]; 1 h, mean ± SD, n = 3",4353.18 ± 260.20 ng/g
same,Liver concentration,"[3]; 1 h, mean ± SD, n = 3",8933.89 ± 456.44 ng/g
same,Plasma concentration,"[3]; 1 h, mean ± SD, n = 3",3104.56 ± 474.21 ng/mL
same,Brain concentration,"[3]; 2 h, mean ± SD, n = 3",7.37 ± 1.98 ng/g
same,Heart concentration,"[3]; 2 h, mean ± SD, n = 3",918.02 ± 156.73 ng/g
same,Kidney concentration,"[3]; 2 h, mean ± SD, n = 3",2751.58 ± 252.41 ng/g
same,Liver concentration,"[3]; 2 h, mean ± SD, n = 3",5322.41 ± 114.54 ng/g
same,Plasma concentration,"[3]; 2 h, mean ± SD, n = 3",2737.71 ± 208.45 ng/mL
same,Brain concentration,"[3]; 4 h, mean ± SD, n = 3",8.28 ± 4.78 ng/g
same,Heart concentration,"[3]; 4 h, mean ± SD, n = 3",338.03 ± 97.76 ng/g
same,Kidney concentration,"[3]; 4 h, mean ± SD, n = 3",1173.69 ± 135.53 ng/g
same,Liver concentration,"[3]; 4 h, mean ± SD, n = 3",2371.88 ± 421.50 ng/g
same,Plasma concentration,"[3]; 4 h, mean ± SD, n = 3",1444.51 ± 155.53 ng/mL
same,Heart concentration,"[3]; 8 h, mean ± SD, n = 3",256.60 ± 117.57 ng/g
same,Kidney concentration,"[3]; 8 h, mean ± SD, n = 3",993.13 ± 136.67 ng/g
same,Liver concentration,"[3]; 8 h, mean ± SD, n = 3",1939.43 ± 337.32 ng/g
same,Plasma concentration,"[3]; 8 h, mean ± SD, n = 3",856.1 ± 332.34 ng/mL
same,Brain concentration,"[3]; 8 h, LLOQ 1 ng/g",LLOQ (<1) ng/g
same,Cmax,[4]; 20 mg/kg p.o.,4039 ± 646.90 ng/mL
same,MRT0–∞,[4]; 20 mg/kg p.o.,3.96 ± 0.91 h
same,T 1/2,[4]; 20 mg/kg p.o.,2.20 ± 0.74 h
same,T max,[4]; 20 mg/kg p.o.,1.50 ± 0.87 h
same,Cmax,[4]; 50 mg/kg p.o.,5741 ± 1835 ng/mL
same,MRT0–∞,[4]; 50 mg/kg p.o.,6.43 ± 1.44 h
same,T 1/2,[4]; 50 mg/kg p.o.,3.50 ± 1.86 h
same,T max,[4]; 50 mg/kg p.o.,2.00 ± 0 h
